Source: patent US9006241B2, “Pyrimidine derivatives” (Noviga Research AB, priority 2011, dated 2015)

What was measured:
Type in all cases: cell-based
[1] = test system: CCRF-CEM cancer cells - leukemia; assay: Fluorometric Microculture Cytotoxicity Assay (FMCA), CCRF-CEM; details: Homo sapiens, 72 h incubation
[2] = test system: MDA-MB-231 (breast cancer); assay: FMCA, MDA-MB-231; details: Homo sapiens, MDA-MB-231 breast cancer cells
Excerpt: (§1) The Fluorometric Microculture Cytotoxicity Assay, FMCA (Larsson, R., et al.; Anticancer Res, 1989, 9, 1111-1119), is a three day non-clonogenic microplate-based cell viability assay used for measurement of the cytotoxic and/or cytostatic effect of compounds in vitro (Lindhagen, E. et al.; Nat. Protoc., 2008, 3, 1364-1369). FMCA represents a valuable method to measure cytotoxicity in a number of cell types, both cell lines and primary cells from patients (Larsson, R., et al.; Int. J. Cancer, 1992, 50, 177-185; Fridborg, H., et al.; Eur. J. Cancer, 1999. 35, 424-432; Dhar, S., et al.; Br. J. Cancer, 1996, 74, 888-896).
(§2) FMCA is based on the principle that fluorescein diacetate (FDA) is converted to the fluorescent probe fluorescein by esterases in the plasma membranes of living cells. For experiments, 96 or 384-well microplates are prepared with compounds and stored at −70° C. until use. Cells are then seeded into the drug-prepared plates and placed in an incubator for 72 h. On the last day of incubation, the plates are washed and a buffer containing FDA is added and incubated with the cells for 45 minutes. Finally the fluorescence per well is measured in a fluorometer and a Survival Index % (SI) for each compound-treated well is calculated with the equation: Compound-treated cells minus blank divided by control cells minus blank. A high SI-value indicates a large percentage of living cells and vice versa.
(§3) For dose-response experiments, 384-well plates were prepared as follows:
(§4) Compounds of the invention as well comparative kinase inhibitors sorafenib sunitinib, dasatinib, pazopanib and a reference compound disclosed in WO 2009/071535 (compound #107) were diluted with PBS to a concentration ten-times higher than the desired starting concentration. Then, a Biomek 2000 liquid handling system was employed to serially dilute the compounds in a deep-well 384-well plate. From this plate, assay plates containing 5 μl compound per well were prepared with the Biomek 2000. Certain compounds precipitated when diluted with PBS, and these compounds were therefore prepared in a 96-well plate manually as described above using culture medium RPMI 1640 instead of PBS.
(§5) The compounds were also tested at five concentrations, with five times serial dilution on the following cell types: CCRF-CEM, hTERT-RPE1 (normal retinal epithelial cells), hRPTEpiC (normal renal cells), and peripheral blood mononuclear cells (PBMC). Each experiment was performed three times, except for PBMC and hRPTEpiC, which were performed twice. SI-values were calculated, graphs were plotted using GraphPadPrism 5.0 (GraphPad Software Inc. La Jolla, Calif.) and IC50-values for each cell type and compound were determined from the curves.
(§6) The compounds of the invention were also tested on further cancer cell lines related to breast cancer (MDA-MB-231; see e.g. Cailleau, R., et al.; J. Natl. Cancer Inst., 1974, 53, 661-674), teniposide-resistant leukemia (CEM/VM1 see e.g. Danks, M., et al.; Cancer Res., 1987, 47, 1297-1301), leukemia (HL-60; see e.g. Collins, S., et al.; Nature, 1977, 270, 347-349), doxorubicin-resistant lung cancer (H69AR; see e.g. Mirski, S., et al.; Cancer Res., 1987, 47, 2594-2598), myeloma (RPMI 8226; see e.g. Matsuoka, Y., et al.; Proc. Soc. Exp. Biol. Med., 1967, 125, 1246-1250), doxorubicin-resistant myeloma (8226/Dox40; see e.g. Dalton, W., et al.; Blood, 1989, 15, 747-752), lymphoma (U-937, see e.g. Sundström, C., et al.; Int. […]

[3] = test system: CEM/VM1 (teniposide-resistant leukemia); assay: FMCA, CEM/VM1; details: Homo sapiens, CEM/VM1 teniposide-resistant leukemia cells
Excerpt: as §1, §2, §3, §4, §5
as §6, with “Int. J. Cancer, 1976, 17, 565-577), vincristin-resistant lymphoma (U-937-vcr; see e.g. Botling, J., et al.; Int. J. Cancer, 1994, 58, 269-274), ovarian cancer (A2780; see e.g. Hamilton, T., et al.; Semin. Oncol., 1984, 11, 285-298), doxorubicin-resistant ovarian cancer (A2780/Adr), cisplatin-resistant ovarian cancer (A2780/Cis; see e.g. Behrens, B., et al. Cancer Res. 1987, 47, 414-418), pancreatic cancer (PANC-1, BxPC-3, and MIA PaCa-2; see e.g. Lieber, M., et al.; Int. J. Cancer, 1975, 15, 741-747; Loor, R., et al.; Clin. Lab.” for “Int.”

HL-60 (leukemia) = assay: FMCA, HL-60; details: Homo sapiens, HL-60 leukemia cells
Excerpt: as §1, §2, §3, §4, §5, §6

[4] = test system: H69AR (doxorubicin-resistant lung cancer); assay: FMCA, H69AR; details: Homo sapiens, H69AR doxorubicin-resistant lung cancer cells
Excerpt: as §1, §2, §3, §4, §5
as §6, with “Int. J. Cancer, 1976, 17, 565-577), vincristin-resistant lymphoma (U-937-vcr; see e.g. Botling, J., et al.; Int. J. Cancer, 1994, 58, 269-274), ovarian cancer (A2780; see e.g. Hamilton, T., et al.; Semin. Oncol., 1984, 11, 285-298), doxorubicin-resistant ovarian cancer (A2780/Adr), cisplatin-resistant ovarian cancer (A2780/Cis; see e.g. Behrens, B., et al. Cancer Res. 1987, 47, 414-418), pancreatic cancer (PANC-1, BxPC-3, and MIA PaCa-2; see e.g. Lieber, M., et al.; Int. J. Cancer, 1975, 15, 741-747; Loor, R., et al.; Clin. Lab.” for “Int.”

RPMI 8226 (myeloma) = assay: FMCA, RPMI 8226; details: Homo sapiens, RPMI 8226 myeloma cells
Excerpt: as §1, §2, §3, §4, §5
as §6, with “Int. J. Cancer, 1976, 17, 565-577), vincristin-resistant lymphoma (U-937-vcr; see e.g. Botling, J., et al.; Int. J. Cancer, 1994, 58, 269-274), ovarian cancer (A2780; see e.g. Hamilton, T., et al.; Semin. Oncol., 1984, 11, 285-298), doxorubicin-resistant ovarian cancer (A2780/Adr), cisplatin-resistant ovarian cancer (A2780/Cis; see e.g. Behrens, B., et al. Cancer Res. 1987, 47, 414-418), pancreatic cancer (PANC-1, BxPC-3, and MIA PaCa-2; see e.g. Lieber, M., et al.; Int. J. Cancer, 1975, 15, 741-747; Loor, R., et al.; Clin. Lab.” for “Int.”

[5] = test system: 8226/Dox40 (doxorubicin-resistant myeloma); assay: FMCA, 8226/Dox40; details: 8226/Dox40 doxorubicin-resistant myeloma cells
Excerpt: as §1, §2, §3, §4, §5
as §6, with “Int. J. Cancer, 1976, 17, 565-577), vincristin-resistant lymphoma (U-937-vcr; see e.g. Botling, J., et al.; Int. J. Cancer, 1994, 58, 269-274), ovarian cancer (A2780; see e.g. Hamilton, T., et al.; Semin. Oncol., 1984, 11, 285-298), doxorubicin-resistant ovarian cancer (A2780/Adr), cisplatin-resistant ovarian cancer (A2780/Cis; see e.g. Behrens, B., et al. Cancer Res. 1987, 47, 414-418), pancreatic cancer (PANC-1, BxPC-3, and MIA PaCa-2; see e.g. Lieber, M., et al.; Int. J. Cancer, 1975, 15, 741-747; Loor, R., et al.; Clin. Lab.” for “Int.”

U-937 (lymphoma) = assay: FMCA, U-937; details: Homo sapiens, U-937 lymphoma cells
Excerpt: as §1, §2, §3, §4, §5
as §6, with “Int. J. Cancer, 1976, 17, 565-577), vincristin-resistant lymphoma (U-937-vcr; see e.g. Botling, J., et al.; Int. J. Cancer, 1994, 58, 269-274), ovarian cancer (A2780; see e.g. Hamilton, T., et al.; Semin. Oncol., 1984, 11, 285-298), doxorubicin-resistant ovarian cancer (A2780/Adr), cisplatin-resistant ovarian cancer (A2780/Cis; see e.g. Behrens, B., et al. Cancer Res. 1987, 47, 414-418), pancreatic cancer (PANC-1, BxPC-3, and MIA PaCa-2; see e.g. Lieber, M., et al.; Int. J. Cancer, 1975, 15, 741-747; Loor, R., et al.; Clin. Lab.” for “Int.”

[6] = test system: U-937-vcr (vincristin-resistant lymphoma); assay: FMCA, U-937-vcr; details: U-937-vcr vincristin-resistant lymphoma cells
Excerpt: as §1, §2, §3, §4, §5
as §6, with “Int. J. Cancer, 1976, 17, 565-577), vincristin-resistant lymphoma (U-937-vcr; see e.g. Botling, J., et al.; Int. J. Cancer, 1994, 58, 269-274), ovarian cancer (A2780; see e.g. Hamilton, T., et al.; Semin. Oncol., 1984, 11, 285-298), doxorubicin-resistant ovarian cancer (A2780/Adr), cisplatin-resistant ovarian cancer (A2780/Cis; see e.g. Behrens, B., et al. Cancer Res. 1987, 47, 414-418), pancreatic cancer (PANC-1, BxPC-3, and MIA PaCa-2; see e.g. Lieber, M., et al.; Int. J. Cancer, 1975, 15, 741-747; Loor, R., et al.; Clin. Lab.” for “Int.”

A2780 (ovarian cancer) = assay: FMCA, A2780; details: Homo sapiens, A2780 ovarian cancer cells
Excerpt: as §1, §2, §3, §4, §5
as §6, with “Int. J. Cancer, 1976, 17, 565-577), vincristin-resistant lymphoma (U-937-vcr; see e.g. Botling, J., et al.; Int. J. Cancer, 1994, 58, 269-274), ovarian cancer (A2780; see e.g. Hamilton, T., et al.; Semin. Oncol., 1984, 11, 285-298), doxorubicin-resistant ovarian cancer (A2780/Adr), cisplatin-resistant ovarian cancer (A2780/Cis; see e.g. Behrens, B., et al. Cancer Res. 1987, 47, 414-418), pancreatic cancer (PANC-1, BxPC-3, and MIA PaCa-2; see e.g. Lieber, M., et al.; Int. J. Cancer, 1975, 15, 741-747; Loor, R., et al.; Clin. Lab.” for “Int.”

[7] = test system: A2780/Adr (doxorubicin-resistant ovarian cancer); assay: FMCA, A2780/Adr; details: A2780/Adr doxorubicin-resistant ovarian cancer cells
Excerpt: as §1, §2, §3, §4, §5
as §6, with “Int. J. Cancer, 1976, 17, 565-577), vincristin-resistant lymphoma (U-937-vcr; see e.g. Botling, J., et al.; Int. J. Cancer, 1994, 58, 269-274), ovarian cancer (A2780; see e.g. Hamilton, T., et al.; Semin. Oncol., 1984, 11, 285-298), doxorubicin-resistant ovarian cancer (A2780/Adr), cisplatin-resistant ovarian cancer (A2780/Cis; see e.g. Behrens, B., et al. Cancer Res. 1987, 47, 414-418), pancreatic cancer (PANC-1, BxPC-3, and MIA PaCa-2; see e.g. Lieber, M., et al.; Int. J. Cancer, 1975, 15, 741-747; Loor, R., et al.; Clin. Lab.” for “Int.”

[8] = test system: A2780/Cis (cisplatin-resistant ovarian cancer); assay: FMCA, A2780/Cis; details: A2780cis, A2780/Cis cisplatin-resistant ovarian cancer cells
Excerpt: as §1, §2, §3, §4, §5
as §6, with “Int. J. Cancer, 1976, 17, 565-577), vincristin-resistant lymphoma (U-937-vcr; see e.g. Botling, J., et al.; Int. J. Cancer, 1994, 58, 269-274), ovarian cancer (A2780; see e.g. Hamilton, T., et al.; Semin. Oncol., 1984, 11, 285-298), doxorubicin-resistant ovarian cancer (A2780/Adr), cisplatin-resistant ovarian cancer (A2780/Cis; see e.g. Behrens, B., et al. Cancer Res. 1987, 47, 414-418), pancreatic cancer (PANC-1, BxPC-3, and MIA PaCa-2; see e.g. Lieber, M., et al.; Int. J. Cancer, 1975, 15, 741-747; Loor, R., et al.; Clin. Lab.” for “Int.”

[9] = test system: BxPC-3 (pancreatic cancer); assay: FMCA, BxPC-3; details: Homo sapiens, BxPC-3 pancreatic cancer cells
Excerpt: as §1, §2, §3, §4, §5, §6

[10] = test system: PANC-1 (pancreatic cancer); assay: FMCA, PANC-1; details: Homo sapiens, PANC-1 pancreatic cancer cells
Excerpt: as §1, §2, §3, §4, §5, §6

[11] = test system: MIA PaCa-2 (pancreatic cancer); assay: FMCA, MIA PaCa-2; details: Homo sapiens, MIA PaCa-2 pancreatic cancer cells
Excerpt: as §1, §2, §3, §4, §5, §6

PC-3 (prostate cancer) = assay: FMCA, PC-3; details: PC-3 prostate cancer cells
Excerpt: as §1, §2, §3, §4, §5, §6

- EC50 [2]: 380 nM
- EC50 [3]: 38 nM
- EC50 (HL-60 (leukemia)): 20 nM
- EC50 [4]: 120 nM
- EC50 (RPMI 8226 (myeloma)): 120 nM
- EC50 [5]: 180 nM
- EC50 (U-937 (lymphoma)): 30 nM
- EC50 [6]: 29 nM
- EC50 (A2780 (ovarian cancer)): 64 nM
- EC50 [7]: 330 nM
- EC50 [8]: 73 nM
- EC50 [9]: 130 nM
- EC50 [10]: 860 nM
- EC50 [11]: 54 nM
- EC50 (PC-3 (prostate cancer)): 380 nM
Structure (SMILES): COc1ccc2[nH]cc(CCNc3nccc(Nc4ccc5c(c4)cc(C)n5C)n3)c2c1 [Example 13, N^4-(1,2-dimethyl-1H-indol-5-yl)-N^2-[2-(5-methoxy-1H-indol-3-yl)ethyl]pyrimidine-2,4-diamine]
- EC50 [1]: 19 nM
